What all share (format): functional
Assay [1] concerns Mus musculus. Put plainly: Analgesic activity in mouse assessed as pain threshold variation at 25 umol/kg, po after 120 mins (RVb = 0.69 +/- 1.98 %).
The test system of assay [2] is Mus musculus. Put plainly: Analgesic activity in mouse assessed as pain threshold variation at 25 umol/kg, po after 30 mins (RVb = -1 +/- 2.8 %).
The subject of assay [3] is Mus musculus. Put plainly: Analgesic activity in mouse assessed as pain threshold variation at 25 umol/kg, po after 60 mins (RVb = -6.5 +/- 1.79 %).
Assay [4] concerns Mus musculus. Nature of the assay: Analgesic activity in mouse assessed as pain threshold variation at 25 umol/kg, po after 90 mins (RVb = 0.2 +/- 3.75 %).
Assay [5] relates to Mus musculus. Nature of the assay: Analgesic activity in mouse assessed as pain threshold variation at 25 umol/kg, po after 150 mins (RVb = 3.98 +/- 4.03 %).
Assay [6] has as its system Mus musculus. Nature of the assay: Analgesic activity in mouse assessed as pain threshold variation at 25 umol/kg, po after 180 mins (RVb = -5.10 %).
The test system of assay [7] is Mus musculus. Nature of the assay: Analgesic activity in mouse assessed as pain threshold variation at 30 umol/kg, po after 30 mins (RVb = 0.13 +/- 0.14 %).
For assay [8], the system named is Mus musculus. Put plainly: Analgesic activity in mouse assessed as pain threshold variation at 30 umol/kg, po after 60 mins (RVb = 0.15 +/- 0.16 %).
In assay [9] the test system is Mus musculus. Put plainly: Analgesic activity in mouse assessed as pain threshold variation at 30 umol/kg, po after 90 mins (RVb = 0.17 +/- 0.14 %).
Assay [10] relates to Mus musculus. Nature of the assay: Analgesic activity in mouse assessed as pain threshold variation at 30 umol/kg, po after 120 mins (RVb = 0.18 +/- 0.15 %).
For assay [11], the system named is Mus musculus. Nature of the assay: Analgesic activity in mouse assessed as pain threshold variation at 30 umol/kg, po after 150 mins (RVb = 0.16 +/- 0.13 %).
The test system of assay [12] is Mus musculus. Put plainly: Analgesic activity in mouse assessed as pain threshold variation at 30 umol/kg, po after 180 mins (RVb = 0.15 +/- 0.12 %).

Where a SMILES comes first, the peptide text is derived from it. The star is where a group is joined. OBn = c1ccc(CO*)cc1

In the case of `O=C(CN(c1nc(Cl)nc2c1ncn2C1CCCCO1)C1CC1)N[C@@H](Cc1c[nH]c2ccccc12)C(=O)OCc1ccccc1` (some centres undefined), the Activity was 22.58% in [1]; 43.53% in assay [2]; 51.9% in assay [3]; 38.93% in assay [4]; 11.45% in [5]; 5.15% in assay [6].

On to `C[C@H](NC(=O)CN)C(=O)OCc1ccccc1` (H-Gly-Ala-OBn), for which the Activity in assay [7] is on record as 12.25%; in assay [8], 13.32%; in [9] it was 13.45%; in assay [10], 13.57%; in assay [11], 13%; in assay [12], 12.99%.

Regarding `C[C@@H](O)[C@H](NC(=O)CN(c1nc(Cl)nc2c1ncn2C1CCCCO1)C1CC1)C(=O)OCc1ccccc1` (some centres undefined), the Activity in assay [1] was found to be 10.91%; in [2], 23.61%; in assay [3] it was 28.36%; in [4], 23.38%; in assay [5] it was 6.53%; in assay [6] it was 2.34%.

Turning to `CC(C)C[C@H](NC(=O)CN(c1nc(Cl)nc2c1ncn2C1CCCCO1)C1CC1)C(=O)OCc1ccccc1` (some centres undefined), the Activity in [1] is 12.79%; in [2] it was 26.2%; in assay [3] it was 34.19%; in assay [4], 28.22%; in assay [5] it was 6.47%; in assay [6], 0.04%.

With `O=C(CN(c1nc(Cl)nc2c1ncn2C1CCCCO1)C1CC1)N[C@@H](CCC(=O)OCc1ccccc1)C(=O)OCc1ccccc1` (some centres undefined), the Activity in [1] was 20.71%; in assay [2] it was 32.61%; in [3], 34.74%; in [4], 25.2%; in assay [5], 14.14%; in assay [6], 10.93%.

For the compound `NC(=O)CC[C@H](NC(=O)CN(c1nc(Cl)nc2c1ncn2C1CCCCO1)C1CC1)C(=O)OCc1ccccc1` (some centres undefined), the Activity in assay [1] is given as 22.34%; in [2], 46.96%; in [3], 39.4%; in [4] it was 37.82%; in assay [5], 10.72%; in assay [6], 7.71%.

On to `O=C(OCc1ccccc1)[C@@H]1CCCN1C(=O)CN(c1nc(Cl)nc2c1ncn2C1CCCCO1)C1CC1` (some centres undefined), for which the Activity in assay [1] is listed as 17.49%; in assay [2], 32.25%; in assay [3], 36.73%; in [4], 23.31%; in [5], 7.85%; in assay [6], 6.63%.

With `O=C(CN(c1nc(Cl)nc2c1ncn2C1CCCCO1)C1CC1)N[C@@H](Cc1ccccc1)C(=O)OCc1ccccc1` (some centres undefined), the Activity was 26.29% in assay [1]; 39.2% in [2]; 45.54% in [3]; 37.73% in assay [4]; 3.49% in [5]; 1.79% in assay [6].

For the compound `O=C(CN(c1nc(Cl)nc2c1ncn2C1CCCCO1)C1CC1)N[C@@H](Cc1ccc(O)cc1)C(=O)OCc1ccccc1` (some centres undefined), the Activity in assay [1] was 17.44%; in assay [2] it was 20.53%; in assay [3], 35.82%; in [4], 36.45%; in [5], 8.71%; in assay [6] it was 12.02%.

As to `CC(C)(C)OC(=O)NCCCC[C@H](NC(=O)CN(c1nc(Cl)nc2c1ncn2C1CCCCO1)C1CC1)C(=O)OCc1ccccc1` (some centres undefined), the Activity in [1] was 28.39%; in assay [2] it was 18.33%; in assay [3] it was 32.66%; in assay [4], 32.85%; in assay [5], 17.2%; in assay [6], 10.06%.

Take `O=C(CN(c1nc(Cl)nc2c1ncn2C1CCCCO1)C1CC1)N[C@@H](CC(=O)OCc1ccccc1)C(=O)OCc1ccccc1` (some centres undefined): the Activity in assay [1] amounted to 7.82%; in assay [2], 31.81%; in [3], 38.15%; in assay [4], 25.07%; in assay [5], 0.06%; in assay [6], 0.03%.

Take `O=C(CN(c1nc(Cl)nc2c1ncn2C1CCCCO1)C1CC1)N[C@@H](Cc1cnc[nH]1)C(=O)OCc1ccccc1` (some centres undefined): the Activity in assay [1] came out at 10.16%; in [2] it was 24.98%; in assay [3], 36.43%; in [4] it was 14.45%; in assay [5] it was 5.31%; in assay [6] it was 4.38%.

With `CC(C)[C@H](NC(=O)CN(c1nc(Cl)nc2c1ncn2C1CCCCO1)C1CC1)C(=O)OCc1ccccc1` (some centres undefined), the Activity in assay [1] is recorded as 25.79%; in [2] it was 21.83%; in [3], 34.85%; in assay [4], 30.14%; in [5], 21.08%; in assay [6] it was 5.65%.

Take `Clc1nc(NC2CC2)c2ncn(C3CCCCO3)c2n1` (centres undefined): the Activity in assay [1] stood at 12.64%; in assay [2] it was 10.27%; in [3], 20.63%; in assay [4], 11.93%; in assay [5], 5.72%; in [6], 5.92%. Moreover, the Activity in assay [7] turned out to be 15.2%; in [8], 25.61%; in assay [9], 16.96%; in assay [10], 15.66%; in [11] it was 10.78%; in [12], 9.95%.

On to `O=C(O)CN(c1nc(Cl)nc2c1ncn2C1CCCCO1)C1CC1` (centres undefined), for which the Activity in assay [1] was 7.68%; in assay [2], 5.21%; in assay [3], 15.24%; in assay [4], 8.22%; in [5], 3.12%; in [6], 3.41%.

For the compound `O=C(CN(c1nc(Cl)nc2c1ncn2C1CCCCO1)C1CC1)N[C@@H](CO)C(=O)OCc1ccccc1` (some centres undefined), the Activity in assay [1] was 29.2%; in [2], 27.77%; in [3] it was 46.71%; in [4], 32.17%; in assay [5], 18.32%; in assay [6], 12.85%.

Take `CC[C@H](C)[C@H](NC(=O)CN(c1nc(Cl)nc2c1ncn2C1CCCCO1)C1CC1)C(=O)OCc1ccccc1` (some centres undefined): the Activity in assay [1] came out at 20.42%; in [2], 25.56%; in assay [3], 27.35%; in [4], 22.57%; in assay [5], 16.43%; in [6], 9.15%.

For `NC(=O)C[C@H](NC(=O)CN(c1nc(Cl)nc2c1ncn2C1CCCCO1)C1CC1)C(=O)OCc1ccccc1` (some centres undefined), the Activity in assay [1] was 29.15%; in assay [2] it was 34.53%; in assay [3], 30.54%; in [4], 34.95%; in assay [5] it was 21.71%; in assay [6], 15.45%.

As for `Clc1nc(Cl)c2ncn(C3CCCCO3)c2n1` (centres undefined), the Activity in [7] amounted to 14.3%; in assay [8], 23.99%; in [9] it was 15.01%; in assay [10], 14.13%; in assay [11], 9.89%; in [12] it was 8.03%.

As for `NCC(=O)O` [GLYCINE], the Activity stood at 10.13% in assay [7]; 11.21% in [8]; 11.31% in assay [9]; 12.03% in assay [10]; 11.54% in [11]; 10.96% in assay [12].

Regarding `CSCC[C@H](NC(=O)CN(c1nc(Cl)nc2c1ncn2C1CCCCO1)C1CC1)C(=O)OCc1ccccc1` (some centres undefined), the Activity came to 28.66% in assay [1]; 30.04% in assay [2]; 40.97% in assay [3]; 42.7% in assay [4]; 17.47% in assay [5]; 12.89% in assay [6].

In the case of `CCOC(=O)CN(c1nc(Cl)nc2c1ncn2C1CCCCO1)C1CC1` (centres undefined), the Activity is recorded as 14.91% in assay [1]; 9.92% in assay [2]; 22.64% in assay [3]; 13.04% in [4]; 11.85% in assay [5]; 5.33% in assay [6].

`Clc1nc(Cl)c2nc[nH]c2n1`: the Activity in assay [7] is listed as 12.22%; in assay [8] it was 21.62%; in assay [9], 14.02%; in assay [10], 12.97%; in [11] it was 8.77%; in [12] it was 7.99%.
